Patent US7256204B2, “Amine compounds, their production and use” (Takeda Pharmaceutical Company Limited, priority 1997, dated 2007)
Counter-ions that a name gives are not always drawn.

Key:
mouse = assay: Experiment of acute toxicity, oral administration; type: in vivo; settings: dose of more than 1000 mg/kg
From the text: In addition, compounds (I) and (I′) have low toxicity. […] Moreover, compounds (I) and (I′) easily penetrate into the brain following the oral administration.

[1] = tested on: Aβ1-40 production and/or secretion in human neuroblastoma IMR-32 cells; assay: Inhibition of amyloid-β protein production in IMR-32 cells, EIA for Aβ1-40; type: cell-based; settings: test compound 10 μM, 24 hours incubation, effect to inhibit production and/or secretion as percentage relative to the control
Description: (§1) Compounds of the present invention were tested for effect of inhibiting amyloid-β protein production in human neuroblastoma IMR-32 cells. Herein referred to were references, Science, 264, 1336 (1994) and Biochemistry, 34, 10272 (1995), etc.
(§2) IMR-32 cells were cultivated in a flask (Falcon, 750 ml) containing 10% FCS/DMEM medium, in an atmosphere of 10% CO2/90% air, at 37° C. to be in confluence. The cultivated cells were seeded into a 48-well plate in a density of 2.5×10^5 cells/well, and incubated therein for 3 days under the same condition as above. Then, the culture medium was removed through suction.
(§3) A dimethylformamide (DMF) solution containing a test compound was dissolved in 0.5 ml of 0.5% BSA/DMEM, and added to the plate, and the cells were incubated for further 24 hours. As the control, the same volume of DMF but not containing the test compound was dissolved in 0.5 ml of 0.5% BSA/DMEM, and added to the plate. […]
(§4) The plate was washed three times with PBS, and 100 μl of an HRP-labeled secondary antibody (BA-27 antibody or BC-05 antibody labeled with HRP, horseradish peroxidase) as dissolved in a buffer for secondary reaction (20 mM phosphate buffer, pH 7.0; 400 mM NaCl; 2 mM EDTA; 1% BSA) was added thereto. […] Then, using a plate reader (MTP-32 Microplate Reader, by Corona Co.), the sample on the plate was subjected to calorimetric determination (at 450 nm). […]

[2] = tested on: Aβ1-42 production and/or secretion in human neuroblastoma IMR-32 cells; assay: Inhibition of amyloid-β protein production in IMR-32 cells, EIA for Aβ1-42; type: cell-based; settings: test compound 10 μM, 24 hours incubation, effect to inhibit production and/or secretion as percentage relative to the control
Description: as §1, §2, §3, §4

Row | SMILES | melting point | other results
1 | CN(C)CC1CCc2cc(OCc3ccc4ccccc4c3)ccc2C1.Cl (stereo not shown) | 228 to 229 °C | –
2 | CN(C)CC1CCc2cc(OCc3ccc(-c4ccc(C=O)cc4)cc3)ccc2C1.Cl (stereo not shown) | 234 to 235 °C | –
3 | CSc1ccc(-c2ccc(COc3ccc4c(c3)CCC(CN(C)C)C4)cc2)cc1.Cl (stereo not shown) | 235 to 237 °C | –
4 | COc1cccc(-c2ccc(COc3ccc4c(c3)CCC(CN(C)C)C4)cc2)c1.Cl (stereo not shown) | 207 to 208 °C | –
5 | CN(C)CC1CCc2cc(OCc3ccc(-c4cc(C(F)(F)F)cc(C(F)(F)F)c4)cc3)ccc2C1.Cl (stereo not shown) | 196 to 197 °C | –
6 | CN(C)CC1CCc2cc(OCc3ccc(-c4ccsc4)cc3)ccc2C1.Cl (stereo not shown) | 222 to 223 °C | –
7 | CN(C)CC1CCc2cc(OCc3ccc(-c4cccs4)cc3)ccc2C1.Cl (stereo not shown) | 227 to 228 °C | –
8 | CN(C)CC1CCc2cc(OCc3cccc(-c4ccc(F)cc4)c3)ccc2C1.Cl (stereo not shown) | 171 to 172 °C | –
9 | CN(C)CC1CCc2cc(OCc3ccccc3-c3ccccc3)ccc2C1.Cl (stereo not shown) | 173 to 174 °C | –
10 | COc1ccc(-c2ccccc2COc2ccc3c(c2)CCC(CN(C)C)C3)cc1.Cl (stereo not shown) | 170 to 171 °C | –
11 | Cl.OC1(O)CCN(CCC2CCc3cc(OCc4ccc(-c5ccccc5)cc4)ccc3C2)CC1 (stereo not shown) | 155 to 156 °C | –
12 | CN(C)CC1CCc2cc(OCc3ccc(-c4cccnc4)cc3)ccc2C1 (stereo not shown) (as salt: hydrochloride) | 212 to 213 °C | –
13 | c1ccc(-c2ccc(COc3ccc4c(c3)CCC(CCN3CCC(N5CCCCC5)CC3)C4)cc2)cc1 (stereo not shown) (as salt: hydrochloride) | 288 to 291 °C | –
14 | COc1ccc(-c2ccc(COc3ccc4c(c3)CCC(CCN(C)C)C4)cc2)cc1.Cl (stereo not shown) [44] | 182 to 185 °C | –
15 | CN(C)CCC1CCc2cc(OCc3ccc(-c4ccccc4)cc3)ccc2C1.Cl (stereo not shown) [Example 12, 6-(4-Biphenylyl)methoxy-2-[2-(N,N-dimethylamino)ethyl]tetralin hydrochloride] | – | acute toxicity (death) (mouse): no mouse was dead; Aβ1–40 (%) [1]: 74%; Aβ1–42 (%) [2]: 75%

Continued, in another order:

Row | melting point | SMILES | other results
16 | 179 to 182 °C | CC(=O)N(Cc1ccc(-c2ccccc2)cc1)c1ccc2c(c1)CCC(CN(C)C)C2.Cl (stereo not shown) | –
17 | 229 to 234 °C (dec.) | Cl.c1ccc(C2CCN(CCC3CCc4cc(OCc5ccc6ccccc6c5)ccc4C3)CC2)cc1 (stereo not shown) | –
18 | 226 to 228 °C | Cc1ccc(-c2ccc(COc3ccc4c(c3)CCC(CN(C)C)C4)cc2)cc1.Cl (stereo not shown) | –
19 | 223 to 234 °C | CN(C)CC1CCc2cc(OCc3ccc(-c4ccc(F)cc4)cc3)ccc2C1.Cl (stereo not shown) | –
20 | 223 to 234 °C | CN(C)CC1CCc2cc(OCc3ccc(-c4cccc([N+](=O)[O-])c4)cc3)ccc2C1.Cl (stereo not shown) | –
21 | 140 to 141 °C | COc1ccccc1-c1ccc(COc2ccc3c(c2)CCC(CN(C)C)C3)cc1.Cl (stereo not shown) | –
22 | 202 to 203 °C | CN(C)CC1CCc2cc(OCc3ccc(-c4ccccc4C#N)cc3)ccc2C1.Cl (stereo not shown) | –
23 | 186 to 190 °C | CN(C)CC1CCc2cc(OCc3cccc(-c4ccccc4)c3)ccc2C1.Cl (stereo not shown) | –
24 | 182 to 183 °C | COc1ccc(-c2cccc(COc3ccc4c(c3)CCC(CN(C)C)C4)c2)cc1.Cl (stereo not shown) | –
25 | 172 to 174 °C | CN(C)CC1CCc2cc(OCc3ccccc3-c3ccc(F)cc3)ccc2C1.Cl (stereo not shown) | –
26 | 197 to 199 °C | Cl.c1ccc(-c2ccc(COc3ccc4c(c3)CCC(CCN3CCCC3)C4)cc2)cc1 (stereo not shown) | –
27 | 232 to 233 °C | CN(C)CC1CCc2ccc(OCc3ccc(-c4ccccc4)cc3)cc2C1.Cl (stereo not shown) | –
28 | 175 to 177 °C | CN(C)CCCCC1CCc2cc(OCc3ccc(-c4ccccc4)cc3)ccc2C1.Cl (stereo not shown) | –
29 | 201 to 202 °C | CN(C)CC1CCc2ccc(OCc3ccc4ccccc4c3)cc2C1.Cl (stereo not shown) | –
30 | 189 to 190 °C | CNCC1CCc2cc(OCc3ccc(-c4ccccc4)cc3)ccc2C1.Cl (stereo not shown) | –
31 | 215 to 218 °C (dec.) | Cl.c1ccc2cc(COc3ccc4c(c3)CCC(CN3CCCCC3)C4)ccc2c1 (stereo not shown) | –
32 | 164 to 166 °C | CCCN(CCC)CC1CCc2cc(OCc3ccc(-c4ccccc4)cc3)ccc2C1.Cl (stereo not shown) | –
